# Laboratory results as given in article PMC9394549 (Nature, 2022).
# Biological target: T1, GAT2 (Homo sapiens, UniProt Q9NSD5)
# T1 sequence (Q9NSD5 1-602): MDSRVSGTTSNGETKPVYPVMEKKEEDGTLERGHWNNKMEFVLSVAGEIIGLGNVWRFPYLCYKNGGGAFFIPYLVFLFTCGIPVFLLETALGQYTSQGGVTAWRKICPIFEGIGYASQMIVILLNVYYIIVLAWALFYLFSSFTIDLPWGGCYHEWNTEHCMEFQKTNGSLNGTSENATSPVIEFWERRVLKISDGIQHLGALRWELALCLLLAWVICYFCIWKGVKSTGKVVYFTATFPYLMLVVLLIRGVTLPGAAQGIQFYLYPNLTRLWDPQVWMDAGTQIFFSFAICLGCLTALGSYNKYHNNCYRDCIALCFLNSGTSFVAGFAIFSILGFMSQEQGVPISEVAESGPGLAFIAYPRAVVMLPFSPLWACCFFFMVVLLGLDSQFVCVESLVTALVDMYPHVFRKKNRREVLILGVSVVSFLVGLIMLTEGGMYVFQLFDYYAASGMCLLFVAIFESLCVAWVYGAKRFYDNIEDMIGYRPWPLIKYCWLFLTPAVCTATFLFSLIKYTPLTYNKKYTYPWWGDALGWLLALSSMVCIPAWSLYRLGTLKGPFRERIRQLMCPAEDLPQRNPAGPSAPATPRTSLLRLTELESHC
# Assay: [3H]-GABA uptake in transfected HEK293S GnTI− cells
# Format: cell-based
compound,measurement,value
NCCCC(=O)O [GABA],[3H]-GABA uptake in transfected HEK293S GnTI- cells,"Specific uptake of [^3H]-GABA in HEK293S cells expressing wild-type GAT1, wild-type GAT2"
